Read-outs that look alike come from different tables or passages of the source.
Columns and labels:
P. aeruginosa AUMC-Pa-3 = assay: microbe, parasite or virus in culture; conditions: strain AUMC-Pa-3; for MICac: MIC of the antibiotic in the combination: with D-11 at MICbc 4
Description: (§1) The MIC tests were performed in triplicate using broth microdilution in accordance with Clinical and Laboratory Standards Institute (CLSI) recommendations (http://iacld.ir/DL/public/CLSI-2018-M100-S28.pdf). Briefly, drugs were two-fold diluted in MHB and mixed with an equal volume of bacterial suspensions containing approximately 1 × 10^6 CFU/mL in 96-well microliter plate. After 18 h incubation at 37 °C, the MIC values were defined as the lowest concentrations of antibiotics with no visible growth of bacteria. […] Otherwise, 1/4 MIC of the peptide was used in the combination. […] If needed, membrane compounds PG, PE, PC, CL or LPS, or membrane stabilizers MgCl2 or CaCl2, or efflux pumps inhibitor PAβN were added to the broth medium to clarify the effect of other substances on the synergy between peptide and antibiotics. All the tests were performed in triplicate.
(§2) The fractional inhibitory concentration (FIC) indices were calculated using the previously described formula FICI = FICa + FICb = MICac/MICa + MICbc/MICb. The FICI was interpreted according to EUCAST [65] as follows: synergistic, FICI≤0.5; additive, 0.5<FICI≤1; indifferent, 1<FICI<2; antagonistic, FICI ≥2. For the FICI calculations, twice the highest concentration tested was used in the cases where the MIC was not reached.

P. aeruginosa AUMC-Pa-4 = assay: microbe, parasite or virus in culture; conditions: strain AUMC-Pa-4; for MICac: MIC of the antibiotic in the combination: with D-11 at MICbc 4
Description: as §1, §2

P. aeruginosa AUMC-Pa-5 = assay: microbe, parasite or virus in culture; conditions: strain AUMC-Pa-5; for FICI: antibiotic + D-11 (MICb/MICbc 64/4); for MICac: MIC of the antibiotic in the combination: with D-11 at MICbc 4
Description: as §1, §2

P. aeruginosa AUMC-Pa-6 = assay: microbe, parasite or virus in culture; conditions: strain AUMC-Pa-6; for FICI: antibiotic + D-11 (MICb/MICbc 64/4); for MICac: MIC of the antibiotic in the combination: with D-11 at MICbc 4
Description: as §1, §2

P. aeruginosa PAO1 = assay: microbe, parasite or virus in culture; conditions: PAO1; for FICI / MICac: the MIC for the antibiotic in the combination: S3 Table
Description: as §1, §2

P. aeruginosa ATCC27853 = assay: microbe, parasite or virus in culture; parameters: MICa: MIC of the antibiotic / MICac: MIC of the antibiotic in the combination: unit not given beside the values; conditions: strain ATCC27853; for FICI: antibiotic + D-11 (MICb/MICbc 32/4); for MICac: MIC of the antibiotic in the combination: with D-11 at MICbc 4
Description: as §1, §2

P. aeruginosa NR-31040 = assay: microbe, parasite or virus in culture; parameters: MICa: MIC of the antibiotic / MICac: MIC of the antibiotic in the combination: unit not given beside the values; conditions: strain NR-31040; for MICac: MIC of the antibiotic in the combination: with D-11 at MICbc 4
Description: as §1, §2

P. aeruginosa NR-31041 = assay: microbe, parasite or virus in culture; parameters: MICa: MIC of the antibiotic / MICac: MIC of the antibiotic in the combination: unit not given beside the values; conditions: strain NR-31041; for FICI: antibiotic + D-11 (MICb/MICbc 64/4); for MICac: MIC of the antibiotic in the combination: with D-11 at MICbc 4
Description: as §1, §2

P. aeruginosa PA14 = assay: microbe, parasite or virus in culture; parameters: MICa: MIC of the antibiotic / MICac: MIC of the antibiotic in the combination: unit not given beside the values; conditions: strain PA14; for MICac: MIC of the antibiotic in the combination: with D-11 at MICbc 4
Description: as §1, §2

P. aeruginosa PAK = assay: microbe, parasite or virus in culture; parameters: MICa: MIC of the antibiotic / MICac: MIC of the antibiotic in the combination: unit not given beside the values; conditions: strain PAK; for FICI: antibiotic + D-11 (MICb/MICbc 64/4); for MICac: MIC of the antibiotic in the combination: with D-11 at MICbc 4
Description: as §1, §2

P. aeruginosa HM-214 = conditions: strain HM-214; antibiotic + D-11 (MICb/MICbc 128/4)
Description: as §1, §2

P. aeruginosa AUMC-Pa-1 = conditions: strain AUMC-Pa-1; antibiotic + D-11 (MICb/MICbc 128/4)
Description: as §1, §2

P. aeruginosa AUMC-Pa-2 = conditions: strain AUMC-Pa-2; antibiotic + D-11 (MICb/MICbc 64/4)
Description: as §1, §2

[1] = system: clinical P. aeruginosa isolates; assay: microbe, parasite or virus in culture; conditions: Pseudomonas aeruginosa, 18 h, antibiotic alone
Description: The bacterial strains, primers and plasmids used in this study are listed in S5 Table. […] Bacteria were cultured in LB medium or cation-adjusted Muller-Hinton broth (CA-MHB) at 37 °C with agitation at 220 rpm. All the antibiotics and chemical compounds used in this study were purchased from Sigma-Aldrich.
as §1

[2] = antibiotic + D-11 (MICb/MICbc 128/4)
[3] = antibiotic alone, unit not given

C[C@H]1[C@H](NC(=O)/C(=N\OC(C)(C)C(=O)O)c2csc(N)n2)C(=O)N1S(=O)(=O)O [Aztreonam]
FICI (P. aeruginosa AUMC-Pa-3; [2]): 0.094 | MICa: MIC of the antibiotic (P. aeruginosa AUMC-Pa-3; [3]): 16 | MICac: MIC of the antibiotic in the combination (P. aeruginosa AUMC-Pa-3; unit not given): 1 | FICI (P. aeruginosa AUMC-Pa-4; [2]): 0.156 | MICa: MIC of the antibiotic (P. aeruginosa AUMC-Pa-4; [3]): 32 | MICac: MIC of the antibiotic in the combination (P. aeruginosa AUMC-Pa-4; unit not given): 4 | FICI (P. aeruginosa AUMC-Pa-5): 0.563 | MICa: MIC of the antibiotic (P. aeruginosa AUMC-Pa-5; [3]): 16 | MICac: MIC of the antibiotic in the combination (P. aeruginosa AUMC-Pa-5; unit not given): 8 | FICI (P. aeruginosa AUMC-Pa-6): 0.563 | MICa: MIC of the antibiotic (P. aeruginosa AUMC-Pa-6; [3]): 16 | MICac: MIC of the antibiotic in the combination (P. aeruginosa AUMC-Pa-6; unit not given): 8 | MIC (P. aeruginosa PAO1; Pseudomonas aeruginosa, PAO1, 18 h, read-out: MICa: the MIC of antibiotics, S3 Table, antibiotic alone): 8 µM | FICI (P. aeruginosa PAO1; antibiotic + 2 μM D-11): 0.188 | FICI (P. aeruginosa PAO1; antibiotic + 4 μM D-11): 0.156 | MICac: the MIC for the antibiotic in the combination (P. aeruginosa PAO1; with 2 μM D-11): 1 µM | MICac: the MIC for the antibiotic in the combination (P. aeruginosa PAO1; with 4 μM D-11): 0.25 µM | FICI (P. aeruginosa ATCC27853): 0.625 | MICa: MIC of the antibiotic (P. aeruginosa ATCC27853; [3]): 8 | MICac: MIC of the antibiotic in the combination (P. aeruginosa ATCC27853; unit not given): 4 | FICI (P. aeruginosa NR-31040; [2]): 0.281 | MICa: MIC of the antibiotic (P. aeruginosa NR-31040; [3]): 4 | MICac: MIC of the antibiotic in the combination (P. aeruginosa NR-31040; unit not given): 1 | FICI (P. aeruginosa NR-31041): 0.188 | MICa: MIC of the antibiotic (P. aeruginosa NR-31041; [3]): 64 | MICac: MIC of the antibiotic in the combination (P. aeruginosa NR-31041; unit not given): 8 | FICI (P. aeruginosa PA14; [2]): 0.531 | MICa: MIC of the antibiotic (P. aeruginosa PA14; [3]): 16 | MICac: MIC of the antibiotic in the combination (P. aeruginosa PA14; unit not given): 8 | FICI (P. aeruginosa PAK): 0.563 | MICa: MIC of the antibiotic (P. aeruginosa PAK; [3]): 8 | MICac: MIC of the antibiotic in the combination (P. aeruginosa PAK; unit not given): 4 | FICI (P. aeruginosa HM-214): 0.531 | FICI (P. aeruginosa AUMC-Pa-1): 0.094 | FICI (P. aeruginosa AUMC-Pa-2): 1.063 | MIC ([1]; read-out: Antibiotic sensibility (MIC) of clinical P. aeruginosa isolate AUMC-Pa-1, strain AUMC-Pa-1): 32 µM | MIC ([1]; read-out: Antibiotic sensibility (MIC) of clinical P. aeruginosa isolate AUMC-Pa-2, strain AUMC-Pa-2): 4 µM | MIC ([1]; read-out: Antibiotic sensibility (MIC) of clinical P. aeruginosa isolate AUMC-Pa-3, strain AUMC-Pa-3): 16 µM | MIC ([1]; read-out: Antibiotic sensibility (MIC) of clinical P. aeruginosa isolate AUMC-Pa-4, strain AUMC-Pa-4): 32 µM | MIC ([1]; read-out: Antibiotic sensibility (MIC) of clinical P. aeruginosa isolate AUMC-Pa-5, strain AUMC-Pa-5): 16 µM | MIC ([1]; read-out: Antibiotic sensibility (MIC) of clinical P. aeruginosa isolate AUMC-Pa-6, strain AUMC-Pa-6): 16 µM | MIC ([1]; read-out: Antibiotic sensibility (MIC) of clinical P. aeruginosa isolate HM-214, strain HM-214): 16 µM | MIC ([1]; read-out: Antibiotic sensibility (MIC) of clinical P. aeruginosa isolate NR-31040, strain NR-31040): 4 µM | MIC ([1]; read-out: Antibiotic sensibility (MIC) of clinical P. aeruginosa isolate NR-31041, strain NR-31041): 64 µM

CC[C@H]1OC(=O)[C@H](C)[C@@H](O[C@H]2C[C@@](C)(OC)[C@@H](O)[C@H](C)O2)[C@H](C)[C@@H](O[C@@H]2O[C@H](C)C[C@H](N(C)C)[C@H]2O)[C@](C)(O)C[C@@H](C)C(=O)[C@H](C)[C@@H](O)[C@]1(C)O [Erythromycin]
MICac: MIC of the antibiotic in the combination (P. aeruginosa AUMC-Pa-3; unit not given): 8 | MICac: MIC of the antibiotic in the combination (P. aeruginosa AUMC-Pa-4; unit not given): 32 | FICI (P. aeruginosa AUMC-Pa-5): 0.313 | MICac: MIC of the antibiotic in the combination (P. aeruginosa AUMC-Pa-5; unit not given): 32 | FICI (P. aeruginosa AUMC-Pa-6): 0.313 | MICac: MIC of the antibiotic in the combination (P. aeruginosa AUMC-Pa-6; unit not given): 32 | FICI (P. aeruginosa ATCC27853): 0.188 | MICac: MIC of the antibiotic in the combination (P. aeruginosa ATCC27853; unit not given): 8 | MICac: MIC of the antibiotic in the combination (P. aeruginosa NR-31040; unit not given): 32 | FICI (P. aeruginosa NR-31041): 0.188 | MICac: MIC of the antibiotic in the combination (P. aeruginosa NR-31041; unit not given): 16 | MICac: MIC of the antibiotic in the combination (P. aeruginosa PA14; unit not given): 32 | FICI (P. aeruginosa PAK): 0.188 | MICac: MIC of the antibiotic in the combination (P. aeruginosa PAK; unit not given): 16 | FICI (P. aeruginosa AUMC-Pa-2): 0.313

Source: paper PMC8445441, “Elucidating the mechanism by which synthetic helper peptides sensitize Pseudomonas aeruginosa to multiple antibiotics” (PLoS Pathogens, 2021)
